Source: PMC5219937 (Bioconjugate chemistry, 2015)
Like-named read-outs stand apart in the source and are kept apart here.

What was measured:
[1] = cited from earlier work
[2] = test system: type 2 diabetic C57BL/6 db/db mice; test: Hypoglycemic effect after subcutaneous injection in db/db mice; type: in vivo, mouse

## Exenatide: commercial exendin-4
[1]
  circulating half-life: 1.5 to 3.6 h

## GLP-1: 30-amino-acid peptide hormone secreted from gut endocrine L cells
[1]; endogenous GLP-1, degraded by DPP-4 once secreted
  half-lifetime: 0.017 to 0.033 h

## Albiglutide: a exendin-4-albumin fusion protein, FDA approved, once a week administration
[2]; dose 14 nmol/kg (Figure S8b)
  blood glucose level: 11.88 mmol/L
[2]; dose 69 nmol/kg
  time required to rebound to a glucose level of 8.35 mmol/L (hypoglycemic duration): 11 h
[2]; dose 69 nmol/kg, three mice, mean
  lowest glucose level: 7.03 mmol/L
[2]; dose 123 nmol/kg (Figure S8c)
  lowest glucose level: 6.67 mmol/L
[2]; dose 123 nmol/kg (Figure S8d)
  time required to rebound to a glucose level of 8.35 mmol/L (hypoglycemic duration): 28 h
[1]
  half-lifetime: 96 to 170 h
